Assay results as given in US20220089710A1, “Method of Treating Signs and Symptoms of Osteoarthritis” (Pfizer Inc., priority 2019, published 2022).

Tested on: patients with moderate to severe OA of the hip or knee
Assay: Example 1: randomized, double-blind, placebo-controlled dose-titration study of SC tanezumab (16-week treatment), efficacy: WOMAC Pain, WOMAC Physical Function, PGA-OA, average daily index joint pain
Assay type: in vivo, human
Conditions: for PGA-OA: Diff of LS Means vs placebo / PGA-OA: LS Mean change from Baseline / WOMAC Pain: Diff of LS Means vs placebo / WOMAC Pain: LS Mean change from Baseline / WOMAC Physical Function: Diff of LS Means vs placebo / WOMAC Physical Function: LS Mean change from Baseline / proportion of patients with ≥50% reduction from baseline in WOMAC Pain subscale: Week 16
Experimental: All patients provided written informed consent before participating. The study was conducted in compliance with the Declaration of Helsinki and all International Conference on Harmonisation Good Clinical Practice guidelines.
The co-primary efficacy endpoints were change from baseline to week 16 in WOMAC Pain subscale, WOMAC Physical Function subscale, and PGA-OA (Theiler et al., Osteoarthritis Cartilage. 2002; 10(6):479-481; Stengaard-Pederson et al., Rheumatology (Oxford). 2004; 43(5):592-595). WOMAC Pain and WOMAC Physical Function subscales measured symptoms within the last 48 hours; both used an 11-point numeric rating scale where higher scores indicated higher levels of pain or worse function. For PGA-OA, patients answered the question “Considering all the ways your osteoarthritis in your hip/knee affects you, how are you doing today?” on a scale from 1=“very good” to 5=“very poor.”
A key secondary efficacy endpoint was the WOMAC Pain […], responder rate at week 16. Other secondary efficacy endpoints were WOMAC Pain responder rates (≥30%, ≤70%, and ≤90%) at week 16 and patient-reported rescue medication use during weeks 2, 4, 8, 12, and 16.
Individual patient transitions in WOMAC Pain response categories (non-response defined as <30% reduction in WOMAC Pain; moderate response as ≥30%, but <50% reduction in WOMAC Pain; and substantial response as […], reduction from baseline in WOMAC Pain) between adjacent time points through the study (from week 4 to week 8, from week 8 to week 12, and from week 12 to week 16), were investigated using contingency tables. These analyses were conducted post hoc. Consistent non-responders were those patients with less than a 30% reduction from baseline in WOMAC Pain at two consecutive time points. Consistent moderate responders were those patients with at least a 30% but less than 50% reduction from baseline in WOMAC Pain at two consecutive time points. Consistent substantial responders were those patients who maintained at least a 50% reduction from baseline in WOMAC Pain at two consecutive time points.
Co-primary endpoints were analyzed in the intent-to-treat population (all patients who received ≥1 study medication dose) using an analysis of covariance model, with terms for baseline score, baseline patient diary average pain, index joint, Kellgren-Lawrence grade, and treatment group, and study site as a random effect. Missing data were handled with a multiple imputation strategy dependent on the reason for discontinuation.
Comparisons for other secondary endpoints were unadjusted. […] Safety assessments were summarized by treatment group as percentages of the treatment group population.

Substance: tanezumab: humanized immunoglobulin G Type 2 (IgG2) monoclonal antibody directed against human nerve growth factor (NGF); SEQ ID NOs: 9 or 11 and 10
- PGA-OA: Diff of LS Means vs placebo (2.5 mg SC): −0.22
- PGA-OA: LS Mean change from Baseline (2.5 mg SC): −0.87
- WOMAC Pain: Diff of LS Means vs placebo (2.5 mg SC): −0.60
- WOMAC Pain: LS Mean change from Baseline (2.5 mg SC): −3.23
- WOMAC Physical Function: Diff of LS Means vs placebo (2.5 mg SC): −0.66
- WOMAC Physical Function: LS Mean change from Baseline (2.5 mg SC): −3.22
- proportion of patients with ≥50% reduction from baseline in WOMAC Pain subscale (2.5 mg SC): 54.5%
- week 8 non-responders (<30% reduction in WOMAC Pain) transitioning to a moderate response at week 12 (2.5 mg group (10/88)): 11.4%
- week 8 non-responders (<30% reduction in WOMAC Pain) transitioning to a substantial response at week 12 (2.5 mg group (14/88)): 15.9%
- patients maintaining a moderate or substantial response from week 8 to week 12 (2.5 mg group (138/231)): 59.7%
- PGA-OA: Diff of LS Means vs placebo (2.5/5 mg SC): −0.25
- PGA-OA: LS Mean change from Baseline (2.5/5 mg SC): −0.90
- WOMAC Pain: Diff of LS Means vs placebo (2.5/5 mg SC): −0.73
- WOMAC Pain: LS Mean change from Baseline (2.5/5 mg SC): −3.37
- WOMAC Physical Function: Diff of LS Means vs placebo (2.5/5 mg SC): −0.89
- WOMAC Physical Function: LS Mean change from Baseline (2.5/5 mg SC): −3.45
- proportion of patients with ≥50% reduction from baseline in WOMAC Pain subscale (2.5/5 mg SC): 57.1%
- week 8 non-responders (<30% reduction in WOMAC Pain) transitioning to a substantial response at week 12 (2.5/5 mg group (17/90)): 18.9%
- week 8 non-responders (<30% reduction in WOMAC Pain) transitioning to a moderate response at week 12 (2.5/5 mg group (20/90)): 22.2%
- patients maintaining a moderate or substantial response from week 8 to week 12 (2.5/5 mg group (138/233)): 59.2%
